Test results as given in paper PMC8041433 (Environmental Health Perspectives, 2021).
Several values for one entry are separate records, joined by “and”; a condition that tells them apart may be missing. Identical values can stand only once. Counter-ions that a name gives are not always drawn. Like-named read-outs stand apart in the source and are kept apart here.

Legend:
[1] = biological target: AChE in SH-SY5Y cells (Homo sapiens, UniProt P22303); assay: cell-based
[2] = biological target: T1, recombinant human AChE (Homo sapiens, UniProt P22303)
[3] = biological target: T1, recombinant human AChE; assay: biochemical

T1 sequence (P22303 32-614): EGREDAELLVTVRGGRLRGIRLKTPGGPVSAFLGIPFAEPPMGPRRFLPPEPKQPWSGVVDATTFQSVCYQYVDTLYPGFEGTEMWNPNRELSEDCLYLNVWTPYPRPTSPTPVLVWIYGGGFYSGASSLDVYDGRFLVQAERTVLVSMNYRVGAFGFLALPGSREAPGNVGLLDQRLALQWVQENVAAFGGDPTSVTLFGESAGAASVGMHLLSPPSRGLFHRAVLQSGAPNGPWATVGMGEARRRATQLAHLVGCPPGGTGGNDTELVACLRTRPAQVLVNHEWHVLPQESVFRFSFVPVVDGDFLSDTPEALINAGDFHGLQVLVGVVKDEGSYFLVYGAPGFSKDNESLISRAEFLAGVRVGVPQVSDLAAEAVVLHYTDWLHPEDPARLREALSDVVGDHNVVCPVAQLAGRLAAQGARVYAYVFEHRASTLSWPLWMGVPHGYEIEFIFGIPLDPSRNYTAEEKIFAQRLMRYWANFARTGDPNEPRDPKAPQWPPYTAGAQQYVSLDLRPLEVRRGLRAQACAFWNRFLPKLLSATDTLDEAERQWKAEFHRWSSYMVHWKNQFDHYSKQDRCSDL
Sequence of AChE in SH-SY5Y cells (P22303 32-614): as above

Row | Structure (SMILES) | CC-v2 (curve classes) [1] | IC50 ([1]; read-out: IC50) | CC-v2 (curve classes) [2] | Efficacy [2] | CC-v2 (curve classes) [3] | Efficacy [3] | IC50 ([3]; read-out: IC50) | IC50 ([1]; IC50 (uM)) | IC50 ([3]; IC50 (uM)) | IC50 [2] | AChE inhibition (result in words) [3]
1 | O=C(O)/C=C\C(=O)O.O=C(O)/C=C\C(=O)O.c1cc(CN2CCCCC2)cc(OCCCNc2nc3ccccc3s2)c1 [Zolantidine dimaleate] | -2.1 | 13.8 µM and 15.5 µM | 4 | 0 | -2.1 | -71.468 | 27.5 µM | – | – | – | –
2 | Nc1ccc(N)c(Cl)c1.O=S(=O)(O)O [2-Chloro-1,4-diaminobenzene sulfate] | -1.1 and -2.1 | 22.4 µM and 20 µM | 4 | -13.066 | -1.1 | -68.64 | 8.94 µM | – | – | – | –
3 | CC[C@@H](CO)NC(=O)[C@@H]1C=C2c3cccc4c3c(cn4C)C[C@H]2N(C)C1 [Methysergide] | -1.1 | – | 4 | -23.381 | -1.1 | -98.745 | – | 0.389 µM and 0.245 µM and 2.45 µM | 4.36 µM | – | –
4 | N=C(N)NC(=O)c1nc(Cl)c(N)nc1N [Amiloride hydrochloride] | -2.1 | – | 4 | 0 | 4 | -15.372 | – | 32.9 µM | – | – | –
5 | CNC(=O)O/N=C(\C)C(C)S(C)(=O)=O (stereo not shown) [Butoxycarboxim] | -2.1 | – | 4 | 0 | -2.2 | -49.747 | – | 355 µM and 398 µM and 447 µM | 794 µM | – | –
6 | COP(=S)(OC)Oc1nc(Cl)c(Cl)cc1Cl [Chlorpyrifos-methyl] | 4 and -2.2 | – | 4 | 0 | 4 | 0 | – | 63.3 µM | – | – | –
7 | CN1CCCN=C1/C=C/c1cccs1.O=C(O)C(O)C(O)C(=O)O [Pyrantel tartrate] | -2.1 | 30.9 µM and 27.5 µM and 15.5 µM | 4 | 0 | -2.4 | -36.527 | 38.9 µM | – | – | – | –
8 | COP(=O)(OC)O/C(C)=C/C(=O)N(C)C [Dicrotophos] | -2.1 | – | 4 | 0 | -2.2 | -67.448 | – | 40.2 µM and 31.9 µM | 63.7 µM | – | –
9 | CN1C[C@H](C(=O)N[C@]2(C)O[C@@]3(O)[C@@H]4CCCN4C(=O)[C@H](Cc4ccccc4)N3C2=O)C=C2c3cccc4[nH]cc(c34)C[C@H]21 [Ergotamine D-tartrate] | -1.1 | – | 4 | 0 | – | – | – | 8.32 µM and 1.01 µM and 3.72 µM and 1.13 µM and 0.898 µM | 29.5 µM and 5.67 µM | – | –
10 | COc1cc(N)c(Cl)cc1C(=O)NC1CN2CCC1CC2.Cl (stereo not shown) [Zacopride hydrochloride] | -2.2 | – | 4 | 0 | 4 | 0 | – | – | – | – | –
11 | CCCCCC1Nc2cc(C(F)(F)F)c(S(N)(=O)=O)cc2S(=O)(=O)N1 (stereo not shown) [Penflutizide] | -2.1 | – | 4 | -21.532 | -2.2 | -58.761 | – | 15.5 µM and 13.8 µM | 21.9 µM | – | –
12 | CCN1C(=CC=Cc2sc3ccccc3[n+]2CC)Sc2ccccc21.[I-] [3,3'-Diethylthiacarbocyanine iodide] | -2.1 and -2.2 | 10.7 µM and 15.1 µM | 4 | 0 | -3 | -76.506 | 19 µM | – | – | – | –
13 | O=S(=O)([O-])SSS(=O)(=O)[O-].[K+].[K+] [Potassium tetrathionate] | -2.1 | 71 µM and 79.6 µM | -2.1 | -82.524 | -2.2 | -73.38 | 71 µM | – | – | 71 µM | –
14 | COCCCN1CCC(NC(=O)c2cc(Cl)c(N)c3c2OCC3)CC1 [Prucalopride] | -2.1 | – | 4 | 0 | -2.4 | -37.421 | – | 17.4 µM | – | – | –
15 | CC[n+]1c(-c2ccccc2)c2cc(N)ccc2c2ccc(N)cc21 [Ethidium bromide] | -2.1 | – | 4 | – | -2.2 | – | – | 19.5 µM and 31.6 µM and 17.4 µM | 30.9 µM and 79.3 µM | – | –
16 | COc1nn(CSP(=S)(OC)OC)c(=O)s1 [Methidathion] | – | – | 4 | – | 4 | 0 | – | 63.3 µM and 79.6 µM and 71 µM and 56.4 µM and 39.9 µM and 35.6 µM and 44.8 µM and 50.2 µM | – | – | –
17 | CCCN(CCc1cccs1)[C@H]1CCc2c(O)cccc2C1 [Rotigotine] | -2.1 | – | 4 | 0 | -2.2 | -40.728 | – | 15.5 µM and 13.8 µM | 34.7 µM | – | –
18 | CCSCc1ccccc1OC(=O)NC [Ethiofencarb] | -1.1 and -2.1 | – | 4 | -27.523 | -1.1 | -87.381 | – | 10 µM and 17.8 µM | 20 µM | – | –
19 | Cc1nc2n(c(=O)c1CCN1CCC(c3noc4cc(F)ccc34)CC1)CCCC2 [Risperidone] | -1.1 and -2.1 | – | 4 | 0 | 4 | -13.373 | – | – | – | – | –
20 | C[n+]1cc2c3c(ccc2c2ccc4cc5c(cc4c21)OCO5)OCO3 [Sanguinarine] | -2.1 | – | 4 | -7.894 | -2.2 | -68.744 | – | 15.1 µM and 12 µM and 10.7 µM | 16.9 µM | – | –
21 | Oc1ccc(C(O)CNCCCCCCNCC(O)c2ccc(O)c(O)c2)cc1O (stereo not shown) [Hexoprenaline sulfate] | – | – | 4 | 0 | 4 | 0 | – | 38.9 µM and 30.9 µM | – | – | –
22 | CCOP(=S)(Oc1ccc([N+](=O)[O-])cc1)c1ccccc1 (stereo not shown) [EPN] | 4 | – | -1.1 | -95.341 | 4 | 0 | – | – | – | – | did not show effects
23 | CCOP(=S)(OCC)SCSCC [Phorate] | -2.1 | – | 4 | 0 | 4 | -23.652 | – | 63.3 µM and 71 µM | – | – | –
24 | COP(=O)(OC)O/C(=C\Cl)c1cc(Cl)c(Cl)cc1Cl [Z-Tetrachlorvinphos] | -2.2 | 44.8 µM | 4 | 0 | -2.4 | -30.752 | – | 63.3 µM and 79.6 µM | 71 µM | – | –
25 | CN(C)c1ccc(C(=C2C=CC(=[N+](C)C)C=C2)c2ccc(N(C)C)cc2)cc1.[Cl-] [Methylrosaniline chloride] | – | 38.9 µM | 4 | 0 | -2.1 | -113.882 | 30.9 µM | – | – | – | –
26 | [H]/N=C(\N/C(=N/[H])NCCCCCCNC(=N)NC(=N)Nc1ccc(Cl)cc1)Nc1ccc(Cl)cc1 [Chlorhexidine dihydrochloride] | – | – | 4 | 14.978 | -1.1 | -89.988 | – | 72.3 µM and 64.4 µM | 22.9 µM | – | –
27 | Cc1cc(N)c2cc(NC(=O)Nc3ccc4nc(C)cc(N)c4c3)ccc2n1.Cl.Cl [Aminoquinuride dihydrochloride] | – | 38.9 µM and 30.9 µM | 4 | 0 | 4 | -15.256 | – | – | – | – | –
